Measured values reported in patent publication US20240360114A1 (SIRONAX LTD., priority 2021, published 2024).
pEC50: −log10 of the molar value.

Test system: HT-1080 cells
Experiment: HT-1080 cell viability assay (ferroptosis induced by RSL3, Cell Titer-Glo)
Format: cell-based
Settings: Homo sapiens, ferroptosis inducer RSL3, 20 hours, ferroptosis inhibitory activity, Table 2
Procedure, shortened: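 EC50 fitted by sigmoidal dose-response regression on luminescent viability data normalized to untreated cells. Compounds ran as a 10-point, 3-fold series from 1.1 μM alongside RSL3 for 20 hours, after overnight seeding.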

Structure (SMILES)	pEC50 (HT-1080, 20 h)	pEC50
CC1(C)CCN(c2ccc(NC3CCC(N)CC3)cc2)CC1 (stereo not drawn) [Compound 62, N1-(4-(4,4-dimethylpiperidin-1-yl)phenyl)cyclohexane-1,4-diamine]	7.00 to 10.00	
CC(C)C1CCN(c2ccc(NC3CCC(N)CC3)cc2)CC1 (stereo not drawn) [Compound 63, N1-(4-(4-isopropylpiperidin-1-yl)phenyl)cyclohexane-1,4-diamine]	7.00 to 10.00	
Cc1cc(NC2CCC(N)CC2)ccc1N1CCC(C(F)(F)F)CC1 (stereo not drawn) [Compound 66, N1-(3-methyl-4-(4-(trifluoromethyl)piperidin-1-yl)phenyl)cyclohexane-1,4-diamine]	7.00 to 10.00	
NC1CCC(Nc2ccc(N3CCC(C(F)(F)F)CC3)c(Cl)c2)CC1 (stereo not drawn) [Compound 67, N1-(3-chloro-4-(4-(trifluoromethyl)piperidin-1-yl)phenyl)cyclohexane-1,4-diamine]	7.00 to 10.00	
NC1CCC(Nc2ccc(N3CCC(C(F)(F)F)CC3)c(F)c2)CC1 (stereo not drawn) [Compound 68, N1-(3-fluoro-4-(4-(trifluoromethyl)piperidin-1-yl)phenyl)cyclohexane-1,4-diamine]	7.00 to 10.00	
Cc1cc(N2CCC(C(F)(F)F)CC2)ccc1NC1CCC(N)CC1 (stereo not drawn) [Compound 69, N1-(2-methyl-4-(4-(trifluoromethyl)piperidin-1-yl)phenyl)cyclohexane-1,4-diamine]	7.00 to 10.00	
NC1CCC(Nc2ccc(N3CCC(C(F)(F)F)CC3)cc2Cl)CC1 (stereo not drawn) [Compound 70, N1-(2-chloro-4-(4-(trifluoromethyl)piperidin-1-yl)phenyl)cyclohexane-1,4-diamine]	7.00 to 10.00	
NC1CCC(Nc2ccc(N3CCC(C(F)(F)F)CC3)cc2F)CC1 (stereo not drawn) [Compound 71, N1-(2-fluoro-4-(4-(trifluoromethyl)piperidin-1-yl)phenyl)cyclohexane-1,4-diamine]	7.00 to 10.00	
CCN1CCC(Nc2ccc(C3CCCCC3)cc2)CC1 [Compound 72, N-(4-cyclohexylphenyl)-1-ethylpiperidin-4-amine]	7.00 to 10.00	
CC1(C)CCC(c2ccc(NC3CCC(N)CC3)cc2)CC1 (stereo not drawn) [Compound 74, N1-(4-(4,4-dimethylcyclohexyl)phenyl)cyclohexane-1,4-diamine]	7.00 to 10.00	
COCC1CCC(Nc2ccc(C3CCC(C)(C)CC3)cc2)CC1 (stereo not drawn) [Compound 75]	6.00 to 7.00	
CN1CCC(NC(=O)C2CCC(Nc3ccc(C4CCC(C)(C)CC4)cc3)CC2)CC1 (stereo not drawn) [Compound 77, 4-((4-(4,4-dimethylcyclohexyl)phenyl)amino)-N-(1-methylpiperidin-4-yl)cyclohexane-1-carbox amide]	7.00 to 10.00	
CC1(C)CCC(c2ccc(NC3CCC(CN)CC3)cc2)CC1 (stereo not drawn) [Compound 78, N-(4-(aminomethyl)cyclohexyl)-4-(4,4-dimethylcyclohexyl)aniline]	7.00 to 10.00	
COCCOCCNc1ccc(C2CCC(C)(C)CC2)cc1 [Compound 79, 4-(4,4-dimethylcyclohexyl)-N-(2-(2-methoxyethoxy)ethyl)aniline]	6.00 to 7.00	
Cc1nc(C2CCC(C)(C)CC2)ccc1NC1CCC(CN)CC1 (stereo not drawn) [Compound 80, N-(4-(aminomethyl)cyclohexyl)-6-(4,4-dimethylcyclohexyl)-2-methylpyridin-3-amine]	6.00 to 7.00	
CC1(C)CCC(c2ccc(NC3CCC(CN)C3)cc2)CC1 (stereo not drawn) [Compound 83, N-(3-(aminomethyl)cyclopentyl)-4-(4,4-dimethylcyclohexyl)aniline]	7.00 to 10.00	
CC1(C)CCC(c2ccc(NC3CC(CN)C3)cc2)CC1 (stereo not drawn) [Compound 84, N-(3-(aminomethyl)cyclobutyl)-4-(4,4-dimethylcyclohexyl)aniline]	7.00 to 10.00	
CC1(C)CCC(c2ccc(NC3CCCC(CN)CC3)cc2)CC1 (stereo not drawn) [Compound 85, 4-(aminomethyl)-N-(4-(4,4-dimethylcyclohexyl)phenyl)cycloheptan-1-amine]	7.00 to 10.00	
CNCC1CCC(Nc2ccc(C3CCC(C)(C)CC3)cc2)CC1 (stereo not drawn) [Compound 86, 4-(4,4-dimethylcyclohexyl)-N-(4-((methylamino)methyl)cyclohexyl)aniline]	7.00 to 10.00	
CNCC1CCC(Nc2ccc(C(C)(C)C)cc2)CC1 (stereo not drawn) [Compound 87, 4-(tert-butyl)-N-(4-((methylamino)methyl)cyclohexyl)aniline]	7.00 to 10.00	
NCC1CCC(Nc2ccc(C(F)(F)F)cc2)CC1 (stereo not drawn) [Compound 88, N-(4-(aminomethyl)cyclohexyl)-4-(trifluoromethyl)aniline]	5.00 to 6.00	
CN(C)C(=O)C1CCC(Nc2ccc(C3CCC(C)(C)CC3)cc2)CC1 (stereo not drawn) [Compound 89, 4-((4-(4,4-dimethylcyclohexyl)phenyl)amino)-N,N-dimethylcyclohexane-1-carboxamide]	7.00 to 10.00	
CC1(C)CCC(c2ccc(NC3CCC(CO)CC3)cc2)CC1 (stereo not drawn) [Compound 90]	7.00 to 10.00	
CC1(C)CCC(c2ccc(NC3CCOCC3)cc2)CC1 [Compound 93, N-(4-(4,4-dimethylcyclohexyl)phenyl)tetrahydro-2H-pyran-4-amine]	7.00 to 10.00	
CC1(C)CCC(c2ccc(NC3CC(N)C3)cc2)CC1 (stereo not drawn) [Compound 94, N1-(4-(4,4-dimethylcyclohexyl)phenyl)cyclobutane-1,3-diamine]	7.00 to 10.00	
CC(C)(C)c1ccc(NC2C3CC4CC2CC(N)(C4)C3)cc1 (stereo not drawn) [Compound 95, N^4-(4-(tert-butyl)phenyl)adamantane-1,4-diamine]	7.00 to 10.00	

Structure (SMILES)	pEC50 (HT-1080, 20 h)	pEC50
CC(C)(C)c1ccc(NC2CCC(CN)CC2)cc1 (stereo not drawn) [Compound 96, N-(4-(aminomethyl)cyclohexyl)-4-(tert-butyl)aniline]	7.00 to 10.00	
CC(C)(C)c1ccc(NC2C3CC4CC2CC(CN)(C4)C3)cc1 (stereo not drawn) [Compound 98, 5-(aminomethyl)-N-(4-(tert-butyl)phenyl)adamantan-2-amine]	7.00 to 10.00	
CC1(N)CCC(Nc2ccc3c(c2)CCC3)CC1 (stereo not drawn) [Compound 99, N1-(2,3-dihydro-1H-inden-5-yl)-4-methylcyclohexane-1,4-diamine]	7.00 to 10.00	
CN1CCC(N2CCC(Nc3ccc(C4CCC(C)(C)CC4)cc3)CC2)CC1 [Compound 100, N-(4-(4,4-dimethylcyclohexyl)phenyl)-1′-methyl-[1,4′-bipiperidin]-4-amine]		6.00 to 7.00
CC1(C)CCC(c2ccc(NCCN3CCCC3)cc2)CC1 [Compound 101, 4-(4,4-dimethylcyclohexyl)-N-(2-(pyrrolidin-1-yl)ethyl)aniline]	7.00 to 10.00	
CC1(C)CCC(c2ccc(NC3CCNC(=O)C3)cc2)CC1 (stereo not drawn) [Compound 102, 4-((4-(4,4-dimethylcyclohexyl)phenyl)amino)piperidin-2-one]	7.00 to 10.00	
CN1CCC(Nc2ccc(C3CCC(C)(C)CC3)cc2)CC1=O (stereo not drawn) [Compound 103, 4-((4-(4,4-dimethylcyclohexyl)phenyl)amino)-1-methylpiperidin-2-one]	6.00 to 7.00	
CC1(C)CCC(c2ccc(NCCN3CCCC3=O)cc2)CC1 [Compound 104, 1-(2-((4-(4,4-dimethylcyclohexyl)phenyl)amino)ethyl) pyrrolidin-2-one]	6.00 to 7.00	
CC1(C)CCC(c2ccc(NCCCCN3CCCC3)cc2)CC1 [Compound 105, 4-(4,4-dimethylcyclohexyl)-N-(4-(pyrrolidin-1-yl)butyl)aniline]	7.00 to 10.00	
c1cc(C2CCCCC2)ccc1NC1CCNC1 (stereo not drawn) [Compound 108, N-(4-cyclohexylphenyl)pyrrolidin-3-amine]	6.00 to 7.00	
c1cc(C2CCCCC2)ccc1NC1CNC1 [Compound 109, N-(4-cyclohexylphenyl)azetidin-3-amine]	6.00 to 7.00	
O=C1CC(C(=O)NC2CCC(Nc3ccc(C4CCCCC4)cc3)CC2)CN1 (stereo not drawn) [Compound 110, N-(4-((4-cyclohexylphenyl)amino)cyclohexyl)-5-oxopyrrolidine-3-carboxamide]	6.00 to 7.00	
O=C1NC[C@H](C(=O)NC2CCC(Nc3ccc(C4CCCCC4)cc3)CC2)N1 (stereo partly drawn) [Compound 111, (R)—N-(4-((4-cyclohexylphenyl)amino)cyclohexyl)-2-oxoimidazolidine-4-carboxamide]	6.00 to 7.00	
O=C1CC(C(=O)NC2CC(Nc3ccc(C4CCCCC4)cc3)C2)CN1 (stereo not drawn) [Compound 112, N-(3-((4-cyclohexylphenyl)amino)cyclobutyl)-5-oxopyrrolidine-3-carboxamide]	6.00 to 7.00	
O=C1NC[C@H](C(=O)NC2CC(Nc3ccc(C4CCCCC4)cc3)C2)N1 (stereo partly drawn) [Compound 113, (R)—N-(3-((4-cyclohexylphenyl)amino)cyclobutyl)-2-oxoimidazolidine-4-carboxamide]	6.00 to 7.00	
CC1(C)CCC(c2ccc(NC3CCC(CNC(N)=O)CC3)cc2)CC1 (stereo not drawn) [Compound 116, 1-((4-((4-(4,4-dimethylcyclohexyl)phenyl)amino)cyclohexyl)methyl)urea]		7.00 to 10.00
CC1(C)CCC(c2ccc(NC3CCC(CCN)CC3)cc2)CC1 (stereo not drawn) [Compound 118, N-(4-(2-aminoethyl)cyclohexyl)-4-(4,4-dimethylcyclohexyl)aniline]	7.00 to 10.00	
CC1(N)CCC(Nc2ccc3c(c2)CCCC3)CC1 (stereo not drawn) [Compound 119, 1-methyl-N4-(5,6,7,8-tetrahydronaphthalen-2-yl)cyclohexane-1,4-diamine]	7.00 to 10.00	
NC1CCC(Nc2ccc(C3CCCCC3)cc2)CC1 (stereo not drawn) [Compound 122, N1-(4-cyclohexylphenyl)cyclohexane-1,4-diamine]	7.00 to 10.00	
CC(C)(C)c1ccc(NC2CC(N)C2)cc1 (stereo not drawn) [Compound 123, N1-(4-(tert-butyl)phenyl)cyclobutane-1,3-diamine]	6.00 to 7.00	
CC(C)(C)c1ccc(NC2CCC(N)C2)cc1 (stereo not drawn) [Compound 124, N1-(4-(tert-butyl)phenyl)cyclopentane-1,3-diamine]	6.00 to 7.00	
CCc1ccc(NC2CCC(N)CC2)cc1 (stereo not drawn) [Compound 125, N1-(4-ethylphenyl)cyclohexane-1,4-diamine]	6.00 to 7.00	
CC(C)(C)c1ccccc1NC1CCC(N)CC1 (stereo not drawn) [Compound 126, N1-(2-(tert-butyl)phenyl)cyclohexane-1,4-diamine]	5.00 to 6.00	
CC(C)c1ccc(NC2CCC(N)CC2)cc1 (stereo not drawn) [Compound 127, N1-(4-isopropylphenyl)cyclohexane-1,4-diamine]	6.00 to 7.00	
Cc1ccc(NC2CCC(N)CC2)cc1 (stereo not drawn) [Compound 128, N1-(p-tolyl)cyclohexane-1,4-diamine]	6.00 to 7.00	
